How the values were obtained:
[1] = Lipophilicity index (log kw7.4, log kw) by RP-HPLC; assay type: physicochemical; settings: for log kw7.4: RP-HPLC, ZORBAX Extend-C18, pH 7.4, extrapolated to 100% water, mean and standard deviation; for log kw: neutral form, calculated from log kw7.4 and pKa by Equation (2)
Protocol: The lipophilicity indexes log kw7.4 were measured by means of RP-HPLC method. The log kw values were then calculated according to Equation (2) given in Section 3.3. The correlation coefficients were greater than 0.999 with covariance equal or less than 0.03 units (n = 2). The log kw^7.4 values of synthetized compounds were measured by a Dionex Ultimate 3000 (Thermo Fisher Scientific) HPLC system controlled through the Chromeleon® Chromatography Data System (version 7.2). The separation was performed on ZORBAX Extend-C18 (3.5 µm, 3 × 150 mm) column (Agilent Technologies). Mobile phase consists of 0.02 M […] with addition of 0.15% of n-decylamine (pH = 7.4; constituent A) and methanol to which 0.25% of n-octanol was added (constituent B). The total flow rate was 0.4 mL/min, the injection volume was 1 μL, and the column temperature was maintained at 25 °C. The detection wavelength of 254 nm was chosen. One milligram of the sample was dissolved in 1 mL of methanol and diluted to the concentration 0.1 mg/mL with 50% methanol. Retention factors of the compound were measured under isocratic conditions in the range 20:80–50:50 (A:B; v/v), 5 values for each factor in duplicate. Linear regression analysis was performed and log kw7.4 values were calculated according to Equation (1). (1) logk=−Sϕ+logkw where log k represents a logarithm of individual isocratic factor, φ is the organic phase concentration, and S is a constant derived by linear regression analysis. The retention factor corresponding to the neutral form (log kw) was estimated from the apparent log kw7.4 by using Equation (2). (2) logkw=logkwapp+log(1+10^pKa−pH)

[2] = Determination of dissociation constants (pKa) by capillary zone electrophoresis; assay type: physicochemical; settings: 25 °C, BGE pH 3.9 to 9.2, mean and standard deviation of four measurements, read-out: pKa (exp.)
Protocol: The dissociation constants (pKa) of studied compounds were determined by means of CE. The measured values and values predicted by chemical software (ACD Percepta ver. 2012, Advanced Chemistry Development, Toronto, ON, Canada; MarvinSketch 6.0.6., ChemAxon Kft., Budapest, Hungary) are shown in Table 1. The correlation coefficients of the experimentally determined values were greater than 0.999 and standard deviation equal or less than 0.02 units (n = 4). The experimental values are in the range 6.35–6.92 and the highest values were recorded for the 1-(2-methoxyphenylpiperazine) derivatives 7b, 8b, 9b. The clinically used β-blockers are usually stronger bases, the values of studied compounds are lower due to the presence of piperazine moiety instead of secondary amine group.
The CE experiments were carried out with an Agilent 3D CE (Agilent Technologies) capillary electrophoresis system equipped with an autosampler, automatic injector, photodiode array detector, and an air cooling unit for the capillary. The instrument control and analysis were performed with 3D-CE ChemStation software (Agilent Technologies). Uncoated fused-silica capillary (Agilent Technologies) of 50 µm internal diameter, total length of 33.0 cm and effective length (to the detector) of 24.5 cm was used. The capillary cassette temperature was maintained at 25 °C with air cooling. Three milligrams of the sample were dissolved in 1 mL of 50% methanol and 10 times diluted with appropriate background electrolyte before analysis. Samples were injected hydrodynamically at 40 mbar pressure for 4.0 s. Running voltage was 15 kV of positive polarity. UV detection was performed at 254 nm. As a marker of electroosmotic flow, mesityl oxide was used. The effective mobilities were recorded for BGE pH values in the range of 3.9 to 9.2 (ionic strength equal to 10 mM), 4 runs at 10 different buffer pH values. The effective mobilities (μeff) were calculated according to Equation (3). (3) μeff=LtotLeff/U(1/tmig−1/tEOF) where tmig is the migration time of the analyte and tEOF is the migration time of a neutral marker compound that is of the same velocity as the electroosmotic flow (EOF). Leff is distance from the injection end of capillary to the detector and Ltot is the total length of the capillary over which the voltage U was applied. SigmaPlot for Windows version 11.0 (Systat Software GmbH, Erkrath, Germany) was employed for the nonlinear regression analysis of µeff/pH relationship having characteristic sigmoidal shape with inflection point indicating pKa value.
The pH measurements were taken with a combination glass electrode (HI 1332B, HANNA Instruments, Woonsocket, RI, USA), using a Thermo Orion 370 PerpHect® pH meter (ThermoFisher Scientific).

| Compound | log kw7.4 [1] | log kw [1] | pKa [2] | melting point [°C] |
| --- | --- | --- | --- | --- |
| COc1ccccc1N1CCN(CC(O)COC(=O)c2ccc(OCCOC(C)C)cc2)CC1.Cl.Cl (stereo not drawn) [8b, 1-{2-Hydroxy-3-[(4-isopropoxyethoxybenzoyl)oxy]propyl}-4-(2-methoxyphenyl)piperazinediium dichloride] | 4.03 ± 0.02 | 4.15 ± 0.07 | 6.92 ± 0.01 | 154 to 156 |
| CCCOCCOc1ccc(C(=O)OCC(O)CN2CCN(c3ccc(OC)cc3)CC2)cc1.Cl.Cl (stereo not drawn) [9c, 1-{2-Hydroxy-3-[(4-propoxyethoxybenzoyl)oxy]propyl}-4-(4-methoxyphenyl)piperazinediium dichloride] | 3.99 ± 0.02 | 4.03 ± 0.09 | 6.39 ± 0.01 | 173 to 175 |
| CCCOCCOc1ccc(C(=O)OCC(O)CN2CCN(c3ccccc3OC)CC2)cc1.Cl.Cl (stereo not drawn) [9b, 1-{2-Hydroxy-3-[(4-propoxyethoxybenzoyl)oxy]propyl}-4-(2-methoxyphenyl)piperazinediium dichloride] | 4.11 ± 0.02 | 4.20 ± 0.09 | 6.79 ± 0.02 | 143 to 146 |
| COc1ccc(N2CCN(CC(O)COC(=O)c3ccc(OCCOC(C)C)cc3)CC2)cc1.Cl.Cl (stereo not drawn) [8c, 1-{2-Hydroxy-3-[(4-isopropoxyethoxybenzoyl)oxy]propyl}-4-(4-methoxyphenyl)piperazinediium dichloride] | 3.90 ± 0.02 | 3.93 ± 0.06 | 6.35 ± 0.02 | 193 to 195 |
| C=CCOCCOc1ccc(C(=O)OCC(O)CN2CCN(c3ccccc3OC)CC2)cc1.Cl.Cl (stereo not drawn) [7b, 1-{3-[(4-Allyloxyethoxybenzoyl)oxy]-2-hydroxypropyl}-4-(2-methoxyphenyl)piperazinediium dichloride] | 3.78 ± 0.02 | 3.89 ± 0.08 | 6.88 ± 0.02 | 178 to 180 |
| C=CCOCCOc1ccc(C(=O)OCC(O)CN2CCN(c3ccc(OC)cc3)CC2)cc1.Cl.Cl (stereo not drawn) [7c, 1-{3-[(4-Allyloxyethoxybenzoyl)oxy]-2-hydroxypropyl}-4-(4-methoxyphenyl)piperazinediium dichloride] | 3.67 ± 0.02 | 3.71 ± 0.08 | 6.49 ± 0.02 | 170 to 173 |
| CC(C)OCCOc1ccc(C(=O)OCC(O)CN2CCN(c3ccccc3)CC2)cc1.Cl.Cl (stereo not drawn) [8a, 1-{2-Hydroxy-3-[(4-isopropoxyethoxybenzoyl)oxy]propyl}-4-phenylpiperazinediium dichloride] | 4.21 ± 0.01 | 4.25 ± 0.05 | 6.49 ± 0.01 | 200 to 202 |
| CCCOCCOc1ccc(C(=O)OCC(O)CN2CCN(c3ccccc3)CC2)cc1.Cl.Cl (stereo not drawn) [9a, 1-{2-Hydroxy-3-[(4-propoxyethoxybenzoyl)oxy]propyl}-4-phenylpiperazinediium dichloride] | 4.29 ± 0.03 | 4.34 ± 0.10 | 6.5 ± 0.02 | 197 to 199 |
| C=CCOCCOc1ccc(C(=O)OCC(O)CN2CCN(c3ccccc3)CC2)cc1.Cl.Cl (stereo not drawn) [7a, 1-{3-[(4-Allyloxyethoxybenzoyl)oxy]-2-hydroxypropyl}-4-phenylpiperazinediium dichloride] | 3.97 ± 0.03 | 4.01 ± 0.09 | 6.47 ± 0.02 | 185 to 187 |

— publication PMC6273861, “Synthesis and Determination of Physicochemical Properties of New 3-(4-Arylpiperazin-1-yl)-2-hydroxypropyl 4-Alkoxyethoxybenzoates” (Molecules, 2016)
